Measured values from the NIST ThermoML archive (doi:10.1021/je3007474).

Experiments:
[1] = 101 kPa, Liquid; for viscosity: Falling or rolling sphere viscometry; for mass density: Vibrating tube method
[2] = xn = mol fraction of the nth substance listed; conditions: 101 kPa, Liquid, x2 = 0; for viscosity: Falling or rolling sphere viscometry; for mass density: Vibrating tube method

C[S+](C)[O-] [dimethyl sulfoxide]
[1]
Conditions	mass density [kg/m3]	viscosity [mPa·s]
298.15 K	1095.74	2.012
303.15 K	1090.73	1.843
313.15 K	1080.69	1.556
323.15 K	1070.66	1.337
333.15 K	1060.63	1.165
343.15 K	1050.58	1.028
353.15 K	1040.51	0.917

CCCCn1cc[n+](C)c1C.F[B-](F)(F)F [1-butyl-2,3-dimethylimidazolium tetrafluoroborate]
[1]
Conditions	mass density [kg/m3]	viscosity [mPa·s]
298.15 K	1193.19	650
303.15 K	1189.8	447
313.15 K	1183.02	232.9
323.15 K	1176.38	132.8
333.15 K	1169.82	81.53
343.15 K	1163.26	53.99
353.15 K	1156.71	37.13

CC#N [acetonitrile] + CCCCn1cc[n+](C)c1C.F[B-](F)(F)F
[2]
Conditions	mass density [kg/m3]	viscosity [mPa·s]
298.15 K	776.55	0.37
303.15 K	771.13	0.354
313.15 K	760.18	0.327
323.15 K	749.11	0.302
333.15 K	737.86	0.281
343.15 K	726.43	0.262

CC#N [acetonitrile]
[1]
Conditions	mass density [kg/m3]	viscosity [mPa·s]
298.15 K	776.55	0.37
303.15 K	771.13	0.354
313.15 K	760.18	0.327
323.15 K	749.11	0.302
333.15 K	737.86	0.281
343.15 K	726.43	0.262

C[S+](C)[O-] [dimethyl sulfoxide] + CCCCn1cc[n+](C)c1C.F[B-](F)(F)F
[2]
Conditions	mass density [kg/m3]	viscosity [mPa·s]
298.15 K	1095.74	2.012
303.15 K	1090.73	1.843
313.15 K	1080.69	1.556
323.15 K	1070.66	1.337
333.15 K	1060.63	1.165
343.15 K	1050.58	1.028
353.15 K	1040.51	0.917
